Measured values: ChEMBL document CHEMBL3507680, “University of Dundee, Gates Library screen for HepG2 cell viability”

Assay: Human HepG2 cell viability assay in 384 well format
Type: toxicity, cell-based
Design: dose 125 nL, time 70.5 hour; concentration not given beside the values
Settings: HepG2 cells, read-out: Inhibition

Point of comparison: `CC(CO)NC(=O)c1ccc(NCc2ccc(F)c(F)c2)cc1` (stereo not drawn), cytotoxicity at 70.5 h -0.038%. Against it:
- Cc1noc(CCCC(=O)N(CCC(=O)O)Cc2ccc(F)c(F)c2)n1 — lower, -3.72%
- Cc1cc(N2CCCC2Cn2nc(C)cc2C)n2ncnc2n1 (stereo not drawn) — higher, 29%
- COc1ccc(NC(=O)CSc2nc(C)c(C)c(C)c2C#N)cn1 — lower, -2.39%
- COc1ccc(C(C)NC(=O)NCCNc2ccccn2)c(OC)c1 (stereo not drawn) — higher, 27.8%
- COc1cc(C)nc(N2CCN(C(C)c3nc(C4CC4)no3)CC2)n1 (stereo not drawn) — lower, -10.4%
- Cc1cc(N2CCCCC2Cn2nc(C)cc2C)n2ncnc2n1 (stereo not drawn) — lower, -4.18%
- COc1ccc(C(C)NC(=O)NCCc2ccc(C)nc2)c(OC)c1 (stereo not drawn) — higher, 24%
- NC(=O)CCC1CCCN(c2ccc3c(Cl)ccnc3c2F)C1 (stereo not drawn) — lower, -6.43%
- COc1ccc(S(=O)(=O)N2CCC(OCc3ccccn3)C2)cc1Br (stereo not drawn) — lower, -9.24%
- CC(Cn1cccn1)NC(=O)N(C)Cc1cnn(C)c1 (stereo not drawn) — lower, -7.21%
- CCCNC(c1cccnc1)c1ccc(F)cc1F (stereo not drawn) — higher, 42.9%
- CCNC(c1ccc(F)cc1)c1cccnc1 (stereo not drawn) — lower, -19.7%
- CN(Cc1cnn(C)c1)C(CO)c1cccc(Br)c1 (stereo not drawn) — lower, -16.5%
- CN(Cc1cnn(C)c1)C(=O)c1ccc(Cl)c(N2CCNC2=O)c1 — lower, -22.2%
- Cc1oc(-c2ccsc2)nc1CN1CCCC(c2ccnn2C)C1 (stereo not drawn) — lower, -23.6%
- Cc1cc(CS(=O)(=O)C(C)C(=O)N(C)c2ccccc2)on1 (stereo not drawn) — lower, -28.7%
- CCCNC(=O)c1cccc(CNCc2csc(CC)n2)c1 — lower, -106%
- CCCNC(=O)c1cccc(CNCc2csc(C(C)C)n2)c1 — lower, -78.5%
- CCS(=O)(=O)NC(CCSC)C(=O)Nc1cc(F)ccc1C (stereo not drawn) — lower, -36.1%
- Cc1ccc(C(NCC(=O)N2CCNC(=O)C2)C(F)(F)F)cc1 (stereo not drawn) — lower, -113%
- CC(NC(=O)Nc1ccc(-n2cncn2)cc1)C(=O)NC(C)(C)C (stereo not drawn) — lower, -29.6%
- CCC(C)NC(=O)c1cccc(CNCc2csc(C(C)C)n2)c1 (stereo not drawn) — lower, -89.9%
- O=C(CN(CC(O)c1ccc(F)cc1)C1CC1)NCc1cccs1 (stereo not drawn) — lower, -114%
- CNS(=O)(=O)c1ccc(CNC(=O)N(CC(C)C)C(C)C)cc1 — lower, -96.5%
- CCN(C(=O)C(C)S(=O)(=O)Cc1nc(C)no1)c1ccccc1 (stereo not drawn) — lower, -96.7%
- COc1ccc(NC(C)c2nnnn2-c2ccccc2)cn1 (stereo not drawn) — lower, -96.1%
- COc1ccc(NC(C)c2nnnn2-c2ccccc2)cc1F (stereo not drawn) — lower, -95.4%
- CCNc1nc(C(=O)N(C)Cc2nc(CC)no2)cs1 — lower, -109%
- NC(=O)CCSc1ccccc1NCc1ccc(Cl)s1 — lower, -95%
- CC(NC(=O)CCC(C)(C)C)C(=O)Nc1ccc(-n2cncn2)cc1 (stereo not drawn) — lower, -24.9%
- CC(C)(C)c1nc(CNc2ccccc2SCCC(N)=O)cs1 — lower, -107%
- CCC(C)(C)CC(=O)NC(C)C(=O)Nc1ccc(-n2cncn2)cc1 (stereo not drawn) — lower, -81.3%
- CC(C)CCS(=O)(=O)N1CCCC(c2nncn2C(C)C)C1 (stereo not drawn) — lower, -33.9%
- c1ccc(CNc2ccccc2N2CCCC2)nc1 — lower, -18.2%
- CC(C)NC(=O)CNC(C)c1c(F)cccc1Cl (stereo not drawn) — lower, -79.9%
- CCOCCN1CCN(CC(O)c2ccc(OC)cc2)CC1 (stereo not drawn) — higher, 36.2%
- CSCc1cc(C(=O)NC2(C#N)CCSC2)ccc1F (stereo not drawn) — lower, -8.71%
- CN1CCN(c2ccc(Br)cc2NC(=O)c2ccco2)CC1 — higher, 2.12%
- CCN(C(=O)c1cc(C)oc1C)C1CC1 — lower, -4.05%
- CC(C)N(CCCNC(=O)C1CCOCC1)S(C)(=O)=O — lower, -5.89%
- CC1(c2ccc(Br)cc2)CC(=O)N(CCC(N)=O)C1=O (stereo not drawn) — lower, -6.18%
- CC(C)N(CCCNC(=O)C1CCCN(C(N)=O)C1)S(C)(=O)=O (stereo not drawn) — lower, -5.29%
- CCN(C(=O)Nc1cc(C)on1)C(C)c1cccc(O)c1 (stereo not drawn) — lower, -9.79%
- CCOCCN1CCN(CC(O)c2ccc(C)c(C)c2)CC1 (stereo not drawn) — lower, -10.1%
- COCCNC(=O)Cn1cc(NC(=O)c2cc(Cl)c(Cl)n2C)cn1 — higher, 0.862%
- COCCNC(=O)Cn1cc(NC(=O)c2ccc(C(C)(C)C)cc2)cn1 — higher, 33.3%
- CCOc1ccc(C(F)(F)F)cc1NC(=O)NCc1noc(C)n1 — lower, -8.58%
- N#CC1(NC(=O)c2ccc(F)c(Br)c2)CCSC1 (stereo not drawn) — lower, -8.42%
- O=C(Nc1cccc(OCC(F)F)n1)c1ccncc1 — lower, -8.53%
- O=C(Nc1cccc(OCC(F)F)n1)c1ccncc1F — lower, -6.41%
- CC(CO)NC(=O)c1ccc(NCc2cc(C#N)ccc2F)cc1 (stereo not drawn) — lower, -0.552%
- O=C(CN(CC1CCC1)CC(F)(F)F)N1CCOCC1 — lower, -5.14%
- Cc1nc(CSCc2ccc(OCC(F)(F)F)nc2)no1 — lower, -7.83%
- CCOc1cccc(CSC(C)c2nc(C)no2)n1 (stereo not drawn) — lower, -3.8%
- Cc1ccc(S(=O)(=O)N(CCO)C2CC2)cc1N(C)C — higher, 2.04%
- COc1c(C)cnc(CN2CCCC2c2noc(C)n2)c1C (stereo not drawn) — higher, 3.95%
- CCn1cc(CNCCNc2ncc(Cl)cc2Cl)cn1 — higher, 10.4%
- CCCNC(=O)c1[nH]nc(C2CC2)c1Br — lower, -5.95%
- COC(=O)c1ccc(OCCn2cnc(C#N)n2)cc1 — lower, -24.3%
- N#Cc1ccc(CN(CC(N)=O)Cc2cccc(F)c2)cc1 — lower, -2.99%
- Cc1nc(CNC(=O)Nc2c(C)n[nH]c2C)cs1 — lower, -9.25%
- CN(CCc1cccc2ccccc12)Cc1nc(N)nc(N(C)C)n1 — higher, 28.3%
- CC(C)N(CC(N)=O)C(=O)CCC(=O)c1ccc(F)cc1F — lower, -6.11%
- Cc1cc(Br)ccc1C(=O)Nc1c(C(N)=O)n[nH]c1C — lower, -9.24%
- Cc1ccc(F)c(C(=O)Nc2c(C(N)=O)n[nH]c2C)c1 — lower, -10.1%
- Cc1cccc(C(=O)Nc2c(C(N)=O)n[nH]c2C)c1C — lower, -5.24%
- Cc1nnc(C(C)NCC2(c3c(F)cccc3F)CCCC2)o1 (stereo not drawn) — lower, -2.47%
- Cc1ccc(C(=O)NCC2(O)CCOCC2)cc1Br — lower, -7.13%
- CN(C)c1ccc(C(=O)NCC2(O)CCOCC2)cc1 — lower, -8.78%
- Cc1nnc(NCC2(c3ccc(Cl)cc3Cl)CCOCC2)c(C#N)c1C — higher, 13.2%
- Cc1nnc(NCC2(c3ccccc3)CC2)c(C#N)c1C — lower, -0.882%
- Cc1ccccc1C1(CNc2nnc(C)c(C)c2C#N)CCOCC1 — lower, -6.42%
- Cn1cc(Br)c(=O)c(NS(=O)(=O)c2ccc(F)cc2)c1 — higher, 16.4%
- Clc1ccc(OCCN2CCN(CCn3cncn3)CC2)cc1 — higher, 13.2%
- CCc1nc(CC(=O)Nc2cnn(CC3CCCO3)c2)cs1 (stereo not drawn) — lower, -7.79%
- c1ccc2oc(NC3CCCN(Cc4noc(C5CC5)n4)C3)nc2c1 (stereo not drawn) — lower, -10.4%
- O=C(CCc1cccc(F)c1F)N1CCN(Cc2ccco2)CC1 — lower, -8.06%
- Cc1nn(C)c(C)c1NC(=O)CN1CCc2c(nc(C3CC3)n2C)C1 — higher, 12.4%
- CC(=O)NCCc1ccc(S(=O)(=O)N(CC(C)C)C(C)C)s1 — higher, 33%
- Cc1cnc(CNc2c(F)cccc2-n2cccn2)o1 — higher, 7.74%
- CCOc1ccc(CN(C)C(=O)NC(C)c2nncn2C)cc1 (stereo not drawn) — higher, 8.83%
- CN(C(=O)Cn1nc(-c2ccc(F)cc2)oc1=O)C1CCS(=O)(=O)C1 (stereo not drawn) — higher, 12.8%
- COC(=O)c1sccc1NC(=O)C1CCCN1C(=O)c1ccco1 (stereo not drawn) — higher, 16.3%
- Cc1cc(NC(=O)NCCc2ccsc2)n(C)n1 — lower, -3.08%
- Cc1cc(CN(C)C(=O)NC(C)c2nncn2C)no1 (stereo not drawn) — lower, -5.64%
- CC(=O)N1CCC(C(=O)NCCN2CCC(C)CC2)CC1 — lower, -2.37%
- CC(=O)N1CCC(C(=O)NCCN2CCCCC2)CC1 — lower, -0.67%
- CS(=O)(=O)NCCNC(=O)C1(c2cccc(Cl)c2)CC1 — lower, -4.01%
- NC(=O)CN1CCCN(C(=O)c2ccn(-c3cccc(F)c3)n2)CC1 — lower, -7.11%
- Cc1cc(C)n(CC(=O)N2CCC(c3nc(C)no3)CC2)n1 — higher, 2.07%
- CC(C)CNC(=O)Nc1ccc(CN2CCOC2=O)cc1 — lower, -13.4%
- CC(CNC(=O)Nc1ccc(N(C)C)nc1)Cn1cccn1 (stereo not drawn) — lower, -7.16%
- COCCN(Cc1ccc(F)cc1Cl)C(=O)c1cccc[n+]1[O-] — lower, -0.551%
- O=C(CCc1ccccc1)Nc1ncccc1OC(F)F — lower, -0.101%
- Cc1ncsc1C(=O)N1CCCC(c2noc(C(C)C)n2)C1 (stereo not drawn) — higher, 0.861%
- Cn1cnc(S(=O)(=O)N2CCN(Cc3ccco3)CC2)c1Cl — higher, 2.09%
- Cc1ccc(CC(=O)N2CCOC(c3nc(C(C)(C)C)n[nH]3)C2)cn1 (stereo not drawn) — lower, -4.13%
- CS(=O)(=O)CCNC(=O)C1(c2cccc(Cl)c2)CCCCC1 — higher, 17.7%
- COc1ccccc1OCC(=O)Nc1ncccc1Cl — lower, -0.838%
- CCC(C)N(C)S(=O)(=O)c1ccc(CCNC(C)=O)s1 (stereo not drawn) — lower, -7%
- CCc1nnc2n1CCN(Cc1csc(-c3ccsc3)n1)C2 — lower, -8.3%
- CN(C)CCN(Cc1cccc(C(F)(F)F)c1)C(=O)c1cc[nH]n1 — lower, -3.41%
- COCCN(Cc1ccc(F)cc1Cl)C(=O)c1ccncc1 — lower, -6.63%
- Cn1cc(-c2csc(CN3CCOCC3)n2)cn1 — lower, -1.08%
- O=C(NCCCn1cccn1)C1(c2ccc(Br)cc2)CC1 — lower, -2.34%
- O=C1NCCCCC1Sc1nnc(-c2cccnc2)n1C1CC1 (stereo not drawn) — lower, -5.84%
- CC(NC(=O)C1=NN(C)C(=O)CC1)c1ccc(Cl)cc1Cl (stereo not drawn) — lower, -3.67%
- Cc1nc(C(C)(C)NC(=O)Nc2ccccc2)no1 — higher, 1.88%
- CCOCCN1CCN(Cc2nc(C3CC3)no2)CC1CC (stereo not drawn) — higher, 18.8%
- CC(C)(C)C(=O)NCCC(=O)NS(=O)(=O)c1ccc2c(c1)OCCO2 — higher, 0.749%
- COCC(NC(=O)c1cnn(C)c1)c1cccc(C(F)(F)F)c1 (stereo not drawn) — higher, 2.36%
- Cn1nc2c(cc1=O)CN(CCc1nc3ccccc3c(=O)[nH]1)CC2 — higher, 1.45%
- O=C(Nc1cccnc1)N1CCC(n2ccc(C(F)(F)F)n2)CC1 — lower, -3.71%
- Cc1cccc(C(=O)N2CCN(S(C)(=O)=O)[C@@H](C)C2)c1C — lower, -0.781%
- CCC1CN(Cc2ccccc2)CCN1Cc1nnc(C2CCC2)o1 (stereo not drawn) — lower, -0.161%
- CSC(C)C(=O)NCCCc1cc(N)n(-c2ccccc2)n1 (stereo not drawn) — higher, 1.73%
- Cc1n[nH]c(C2CN(C(=O)CCc3ccsc3)CCO2)n1 (stereo not drawn) — lower, -5.2%
